Data: US7776826B2, “Method for fostering bone formation and preservation” (Unigene Laboratories, Inc., priority 2004, dated 2010)

What was measured:
Format in all cases: in vivo, rat
Male Sprague-Dawley rats [1] = assay: pQCT analysis of left and right femoral shafts at day 21, Groups K-R
Excerpt: FIG. 10 (a-b) presents high resolution radiograms of the left and right femurs, respectively, from an additional series of experiments on additional groups of male Sprague-Dawley rats (6 rats per group) aged 9 weeks which were sacrificed and tested after 21 days (3 weeks). The various groups were subjected to the following treatment modalities: Group K—control day 0; Group L—control day 21; Group M—bone marrow ablation (bmx) day 0; Group N—sham day 21; Group O— bmx+phosphate buffer saline (PBS) daily for 21 days; Group P—bmx+PTH[1-34]-NH2 daily for 21 days; Group Q—bmx+ parathyroid hormone related peptide (PTHRP) daily for 21 days; and Group R—bmx+rat α-calcitonin gene related peptide (CGRP) daily for 21 days;
FIG. 11 (a-d) are graphical representations of the results of Peripheral Quantitative Computerized Tomography (PQCT) analyses of, respectively, the left (ablated) and right (non-ablated) femoral shafts of the rats from Groups K-R (see description of FIG. 10). FIGS. 11(a) and 11(b) illustrate the trabecular bone density observed in, respectively the left and right femoral shafts at day 21; whereas, FIGS. 11(c) and 11(d) illustrate the total bone density of, respectively, the left and right femoral shafts at the same interval. The meanings of the abbreviations used in FIGS. 11(a-d) are identical to those described above with regard to FIG. 10. […] [+=p value<0.01 vs. sham; *=p value<0.01 vs. bmx+PTH; **=p value<0.01 vs. bmx+PTH; and #=p value<0.05 vs. PBS];
An additional series of experiments was thereafter carried out with additional groups of rats (K-R) in order to (1) measure the effect of additional bone anabolic agents, i.e., other than parathyroid hormone (PTH[1-34]-NH2) and calcitonin, as well as to compare the effect(s) achieved with such parathyroid hormone with those obtained with the use of alternate anabolic agents, including parathyroid hormone related peptide (PTHrP) and calcitonin gene related peptide (CGRP). As in the case of the analyses discussed above with regard to FIGS. 3-9, in the animals tested only the left femur underwent the bone marrow ablation (bmx) procedure, i.e., there was no ablation of the right femur. Thus, as noted above, any views of the right femur in the figures described below indicating bone marrow ablation (bmx) as a treatment modality should be taken to mean that such treatment was applied to the corresponding left femur. Further, as was additionally the case above, the samples described below with regard to FIGS. 10-13 were taken from the femur shafts, rather than the corresponding distal epiphysis as in the case of FIGS. 1 and 2. The figures discussed below depict the results of end-point studies wherein the measurements were taken only at the 21 day end-point.
FIG. 11 (a-d) graphically illustrates, by means of a bar graph, the improvements in trabecular bone density and, to some extent, total bone density, in the left femoral shaft of rats subjected to the treatment modalities described above with regard to FIG. 10 (a-b); that is, control day 0; bmx day 0; control day 21; sham day 21; bmx+PBS on day 21; bmx+PTH on day 21; bmx+PTHrP on day 21; and bmx+CGRP on day 21. Again, this is attributable that (only) the left femur was subjected to the bmx treatment, and thus was the only femur wherein the effects of such bmx treatment overlapped with that of the systemic treatment with the bone anabolic agent. […] In contrast to the values obtained for the left femur, no significant amount of bone was formed in the right femur, notwithstanding whether it is trabecular bone density or total bone density which is being measured. This lack of new bone is, furthermore, attributable to the fact that the right femur had not been subjected to the bone marrow ablation (bmx) treatment.

Male Sprague-Dawley rats [2] = assay: Serum osteocalcin concentration at day 21, Groups K-R
Excerpt: FIG. 12 provides a measurement of the serum osteocalcin concentration (in ng/ml) in the blood of the rats in Groups K-R when the rats were sacrificed 21 days after commencement of treatment. The meaning of the abbreviated terms is the same as in FIGS. 10 and 11. […] [*=p value<0.05, while **=p value<0.01];
FIG. 12 is a bar graph which sets forth the osteocalcin levels determined, at the time of sacrifice, in the blood serum of the rats which were the subject of the analyses illustrated in FIGS. 10 and 11. As indicated above, it is well known that osteocalcin is a biochemical marker indicative of new bone growth.
The table additionally includes the standard deviations for the values obtained for each analysis, which standard deviations are also included in FIG. 12.

Male Sprague-Dawley rats [3] = assay: MicroCT analysis of femoral shafts, Groups K-R; details: left femoral shaft with bmx, agent for 21 days
Excerpt: FIG. 13(a-b) illustrate the results of Micro Computerized Tomography (MicroCT) analysis of the left (ablated) and right (non-ablated) femoral shafts of the rats of Groups K-R. The abbreviations are the same as those used in FIGS. 10-12;
FIG. 13 (a-b) provides a comparison between Micro Computerized Tomography (MicroCT) analyses of bone samples taken from the left femoral shaft (FIG. 13a) and the right femoral shaft (FIG. 13b) of rats treated in the manner indicated in FIGS. 10-12. As in the other cases discussed above, the most significant amount of new bone growth is found in the shaft of the left femur, since this shaft was subjected to the bmx treatment. […] In contrast, the right femoral shaft sections show very little or no increase in bone growth at all.

[4] = ablated femur, day 21, agent daily for 21 days, Groups K-R
[5] = non-ablated femur, day 21, agent daily for 21 days, Groups K-R

PTH[1-34]-NH2
Left femoral shaft Total density mean (Male Sprague-Dawley rats [1]; [4]): 1100.2 mg/mL
Left femoral shaft Trabecular density mean (Male Sprague-Dawley rats [1]; [4]): 540.7 mg/mL
trabecular bone density of left femoral shaft, in words (Male Sprague-Dawley rats [1]; bmx, day 21): significantly improved
Right femoral shaft Total density mean (Male Sprague-Dawley rats [1]; [5]): 899.5 mg/mL
Right femoral shaft Trabecular density mean (Male Sprague-Dawley rats [1]; [5]): 128.3 mg/mL
osteocalcin level, in words (Male Sprague-Dawley rats [2]; bmx + agent daily for 21 days): highest osteocalcin level
Osteocalcin mean (Male Sprague-Dawley rats [2]; bmx rats, day 21, agent daily for 21 days, Groups K-R): 141.5 ng/mL
new bone growth in MicroCT, in words (Male Sprague-Dawley rats [3]): significant degree of improvement
